# Target: T1, AMAN-2 (F58H1.1; Golgi α-mannosidase II) (Caenorhabditis elegans, UniProt Q2PJ74)
# T1 sequence (Q2PJ74 125-1145): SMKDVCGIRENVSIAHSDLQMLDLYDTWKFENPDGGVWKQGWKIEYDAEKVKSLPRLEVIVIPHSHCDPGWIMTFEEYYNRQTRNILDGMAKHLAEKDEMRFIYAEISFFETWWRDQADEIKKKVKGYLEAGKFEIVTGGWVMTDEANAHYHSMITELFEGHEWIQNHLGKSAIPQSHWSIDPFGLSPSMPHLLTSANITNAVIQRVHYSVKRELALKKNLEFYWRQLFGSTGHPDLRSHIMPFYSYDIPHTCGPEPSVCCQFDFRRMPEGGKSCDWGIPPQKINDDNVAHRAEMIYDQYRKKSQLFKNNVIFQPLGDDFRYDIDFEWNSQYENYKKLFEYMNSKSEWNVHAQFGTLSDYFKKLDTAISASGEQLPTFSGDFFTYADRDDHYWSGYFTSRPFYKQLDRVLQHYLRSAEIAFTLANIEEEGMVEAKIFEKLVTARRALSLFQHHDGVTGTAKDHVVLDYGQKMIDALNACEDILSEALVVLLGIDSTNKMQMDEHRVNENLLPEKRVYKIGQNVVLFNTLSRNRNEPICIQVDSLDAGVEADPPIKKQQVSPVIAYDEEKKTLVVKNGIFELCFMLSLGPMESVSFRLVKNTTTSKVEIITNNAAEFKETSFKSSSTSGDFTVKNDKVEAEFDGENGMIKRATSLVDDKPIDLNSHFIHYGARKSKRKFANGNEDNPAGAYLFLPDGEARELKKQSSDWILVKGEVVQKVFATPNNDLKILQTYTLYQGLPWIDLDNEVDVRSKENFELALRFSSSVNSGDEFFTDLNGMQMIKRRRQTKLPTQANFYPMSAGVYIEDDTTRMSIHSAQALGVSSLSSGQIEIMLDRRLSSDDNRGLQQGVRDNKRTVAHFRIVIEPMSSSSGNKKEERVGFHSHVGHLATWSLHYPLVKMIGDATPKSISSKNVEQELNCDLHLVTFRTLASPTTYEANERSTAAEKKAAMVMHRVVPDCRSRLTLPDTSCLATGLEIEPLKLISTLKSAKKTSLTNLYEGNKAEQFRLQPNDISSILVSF
# Assay: inhibition of p-nitrophenyl-α-mannoside hydrolysis, A405
# Type: biochemical
# Conditions: read-out: % inhibition at 1 mM
structure (smiles),measurement,value
OC[C@H]1NC[C@@H](O)[C@@H](O)[C@@H]1O [deoxymannojirimycin],inhibition at 1000 µM,~45%

# Source: publication PMC2848328 (The Journal of biological chemistry, 2006)
